Values of other authors, collected in patent US10392388B2, “Meropenem derivatives and uses thereof” (Kala Pharmaceuticals, Inc., priority 2013, dated 2019).

C[C@@H](O)[C@H]1C(=O)N2C(C(=O)O)=C(S[C@@H]3CN[C@H](C(=O)N(C)C)C3)[C@H](C)[C@H]12 [Meropenem, meropenem]
MIC90 (Pseudomonas aeruginosa): about 8 μg/mL
water solubility: > 1 mg/mL
